Experimental data reported in patent publication US20050164370A1 (priority 2003, published 2005).

Columns and labels:
[1] = biological target: T1, cytokinin receptor AHK2Δ (Arabidopsis thaliana, UniProt Q9C5U2); format: cell-based, yeast; parameters: added initiator methionine (ATG added at the 5' end) (N); expressed in transfected cells; host or cells: yeast strain TM182 carrying plasmid p415CYC-AHK2Δ (pHM-1 backbone, CYC1 promoter); conditions: TM182-AHK2Δ, examinee substance 100 μM, DOLU+Glu, 30° C. for 24 hours
T1 sequence (Q9C5U2 196-1176): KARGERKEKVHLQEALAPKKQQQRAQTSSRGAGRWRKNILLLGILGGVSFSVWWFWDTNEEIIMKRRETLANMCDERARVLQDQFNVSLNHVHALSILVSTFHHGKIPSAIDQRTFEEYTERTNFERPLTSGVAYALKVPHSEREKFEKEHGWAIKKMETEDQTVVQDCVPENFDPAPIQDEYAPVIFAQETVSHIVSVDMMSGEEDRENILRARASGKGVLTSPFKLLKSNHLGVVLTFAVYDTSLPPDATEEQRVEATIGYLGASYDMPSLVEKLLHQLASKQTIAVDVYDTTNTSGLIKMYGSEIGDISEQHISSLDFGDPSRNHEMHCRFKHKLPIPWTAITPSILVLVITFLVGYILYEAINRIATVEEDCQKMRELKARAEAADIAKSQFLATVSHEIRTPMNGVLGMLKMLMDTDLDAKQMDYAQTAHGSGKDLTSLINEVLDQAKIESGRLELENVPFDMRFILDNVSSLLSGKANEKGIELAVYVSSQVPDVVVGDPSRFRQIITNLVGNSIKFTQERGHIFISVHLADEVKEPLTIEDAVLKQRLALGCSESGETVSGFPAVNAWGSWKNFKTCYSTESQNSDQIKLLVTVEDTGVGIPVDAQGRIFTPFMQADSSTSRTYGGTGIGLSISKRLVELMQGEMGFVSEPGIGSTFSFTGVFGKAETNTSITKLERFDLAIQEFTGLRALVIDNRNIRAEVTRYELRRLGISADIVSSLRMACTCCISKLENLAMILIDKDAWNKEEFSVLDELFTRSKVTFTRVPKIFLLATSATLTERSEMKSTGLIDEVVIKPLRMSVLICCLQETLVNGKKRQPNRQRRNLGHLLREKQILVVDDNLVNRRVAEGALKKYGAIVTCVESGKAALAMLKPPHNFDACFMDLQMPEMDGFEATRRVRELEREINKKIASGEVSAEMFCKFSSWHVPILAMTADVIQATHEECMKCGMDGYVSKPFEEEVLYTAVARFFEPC
Protocol: The transformed cells TM182-AHK2, TM182-AHK2Δ and TM182-AHK3 produced in the reference example 1 were inoculated in 200 ml of DOLU+Gal culture media and pre-cultured at 30° C. for 36 hours. The pre-cultured solutions were diluted with DOLU+Glu media as to become 0.100 as the optical density (OD600) and further the resultants were diluted with DOLU+Glu media at a dilution rate of 1/200 to obtain diluted pre-cultured solutions.
An assay plate was prepared by filling respective wells of a 96-well plate with 20 μl of solutions which were prepared by diluting DMSO solution (10 mM) of each examinee substance with DOLU+Glu medium at a dilution rate of 1/100, said solutions containing each examinee substance to be […]. […]
The diluted pre-cultured solutions were added in 200 μl each into the respective wells of both assay plates and cultured at 30° C. for 24 hours and then the optical density (OD620) of each well was measured by a plate reader. The agonist-activity of the examinee substances to the cytokinin receptor was detected by comparing the optical density measured in the testing sections to which the examinee substances were added with the optical density measured in the blank sections.

[2] = system: transformed cells TM182-CYC1-ADHIPT5; test: Liquid culture of transformed cell TM182-CYC1-ADHIPT5 with examinee substance, absorbance; format: cell-based, yeast; conditions: DOHLU+Glu, 30° C. for 24 hours
Protocol: The thus obtained culture solutions were diluted with DOHLU+Glu culture medium so that OD600 became 0.200, and then the diluted ones were further diluted with DOHLU+Glu culture medium at a dilution rate of 1/200 to obtain diluted pre-cultured solutions.
A 96-well assay plate was prepared by filling each well with 1 μL of a DMSO solution of an examinee substance (Abscisic acid or 6-Benzyl aminopurine). In this regard, it is to be noted that the DMSO solution of a examinee substance was prepared so that the concentration thereof became 200 ppm. Simultaneously, an assay plate was prepared by filling each well with 1 μL of DMSO as a blank section.
(§1) Each of the diluted pre-cultured solutions was added in a volume of 100 μL per each well of both of the assay plates, and was cultured at 30° C. for 24 hours. After incubation, the turbidity of each well was measured using a plate reader. The absorbance (OD600) of each of the culture solutions of the transformed cells containing the examinee substance was shown in Table 3. […] Further, the growth speeds of the transformed cells TM182-CRE1-CYC1IPT4 and TM182-CRE1-ADHIPT5 in the culture medium to which 6-Benzyl aminopurine was added were faster than those in the culture medium to which only DMSO was added.
as §1, with “4.” for “3.”, “TM182-CRE1-ADHIPT4, TM182-AHK2-CYC1IPT4, TM182-AHK2-CYC1IPT5” for “TM182-CRE1-CYC1IPT4”, “TM182-AHK2-ADHIPT5” for “TM182-CRE1-ADHIPT5”

[3] = Table 3, TM182-CYC1-ADH-IPT5, 1 μL of 200 ppm DMSO solution per 100 μL
[4] = Table 4, TM182-CYC1-ADH-IPT5, 1 μL of 200 ppm DMSO solution per 100 μL

| Compound | optical density (OD620) of the culture solution [1] | absorbance (OD600) of the culture solution [2, 3] | absorbance (OD600) of the culture solution [2, 4] |
| --- | --- | --- | --- |
| CC1=CC(=O)CC(C)(C)[C@@]1(O)/C=C/C(C)=C\C(=O)O [Compound A, Abscisic acid] | 0 | 0.043 | 0.035 |
| c1ccc(CNc2ncnc3nc[nH]c23)cc1 [Compound B, 6-Benzyl aminopurine] | 0.89 | 0.043 | 0.035 |
